Test results as given in PMC12081876, “Identification of PTGR2 inhibitors as a new therapeutic strategy for diabetes and obesity” (EMBO Molecular Medicine, 2025).

Key:
mPPARγ LBD C313A mutant = biological target: T1, mPPARγ LBD C313A mutant (Mus musculus, UniProt P37238, C313A); assay: Native mass spectrometry ligand binding, mPPARγ LBD C313A; design: species or system murine
T1 construct: mPPARγ LBD C313A mutant
Experimental: Wide-type mPPARγ ligand binding domain (LBD), mPPARγ LBD C313A mutant, and mPPARγ LBD H351A mutant were mixed together in a 1:1:1 molar ratio and then incubated with 15-keto-PEG2 or pioglitazone in a 1:10 molar ratio for 5 min at room temperature, respectively. The protein mixture was buffer-exchanged into 500 mM ammonium acetate buffer pH 7.5 using 7 K Zeba™ Spin Desalting Column (cat. no, 89877, Thermo) and immediately introduced into a modified Q-Exactive mass spectrometer (Thermo). The sets of optimized parameters were applied to analyze the ligand binding, including the higher-energy collisional dissociation (HCD) energy of 20 V; spray voltage, 1.1 kV; capillary temperature, 200 °C; S-lens RF level, 200; and resolution, 12,500 at m/z 400. Spectra were acquired and processed manually using Thermo Xcalibur Qual Browser (version 4.4.16.14). The relative percentage of compound-bound forms was quantified by the UniDec software and the degree of effector coupling was calculated by normalizing the relative percentage of bound forms to the sum of the percentage of unbound and bound forms.

[1] = test system: HFHSD-fed obese C57BL6/J mice; assay: Energy expenditure, food intake and physical activity (indirect calorimetry); format: in vivo, mouse; details: 40 mg/kg/day ip, vs vehicle
Experimental: Metabolic measurements (food and water intake, locomotor activity, VO2 consumption and VCO2 production) were obtained using the Promethion metabolic phenotyping system (Sable Systems). The mice were housed in the Promethion system with ad libitum access to food and water. Monitoring was performed for 5 days after mice have been acclimatized to the cages for 2 days.
All values were expressed as mean ± S.E.M. All reported sample sizes were biologically independent but not technically repeatedly measured. Skewed data was logarithmized to approximate normal distribution. Comparisons between two separate groups were performed using Student t-tests. Comparisons among multiple groups were conducted using a one-way analysis of variance with post hoc analyses. Statistical analyses were conducted using GraphPad Prism 8.0 and SAS 9. Energy expenditure between genotypes was analyzed using the generalized linear model according to international guidance (Speakman et al, [2013]; Tschöp et al, [2011]). Energy expenditure (expressed as kcal/hr) was regressed on body weight using the command “glm” implemented in STATA 14.0 (Speakman et al, [2013]; Tschöp et al, [2011]). Two-sided p-values < 0.05 were considered statistically significant. The sample size was determined according to our previous experience. There was no exclusion/inclusion criteria, blinding and randomization.

PTGR2 = assay: 15-keto-PGE2 content in fat tissue after BPRPT0245 dosing; format: in vivo, mouse; details: BPRPT0245 100 mg/kg/day oral, 4 days, 2 h after last dose, vs vehicle
Experimental: Liquid nitrogen-frozen tissue was grinded using pestle and mortar. Approximately 500 mg of tissue powders were immersed with 400 μL of the upper layer of acetonitrile (ACN)/hexane mixture supplemented with 0.5% formic acid, and then homogenized with ceramic beads by MagNA Lyser (Roche, USA). The homogenate was then added with 600 μL ACN containing 13,14 dihydro-15-keto-PGE2-d4 (cat no. 10007978, Cayman Chemical, Ann Arbor, MI) in 1:20,000 dilution and homogenized, followed by the addition of 600 μL ddH2O. The mixture was centrifuged at 12,000 × g for 10 min at 0 °C. The lower layer was transferred to a new tube. A C-18 solid-phase extraction (SPE) cartridge (Cat no. 400020, Cayman Chemical) was sequentially activated with 20 mL methanol and 20 mL ddH2O. The protein sample was loaded into activated SPE cartridge. Once the sample passed the cartridge, the cartridge was washed with 5 mL 15% methanol and then 5 mL ddH2O. Finally, the sample was eluted with 10 mL HPLC-degree methanol (Methanol Chromasolv LC-MS, Fluka) and aliquoted into new 2-mL tubes. […]
The HPLC system consisted of an Agilent 1200 series LC System with BinPump (Waldbronn, Germany) and an Agilent Eclipse XDB C8 (3.0 × 150 mm, 5 µm) interfaced to a Sciex API 4000 tandem mass spectrometer. […] The ions monitored for BPRPT0245 were m/z 447/189 and m/z 357/195, respectively. […]

T1 sequence (P37238 238-503 C313A limits assumed): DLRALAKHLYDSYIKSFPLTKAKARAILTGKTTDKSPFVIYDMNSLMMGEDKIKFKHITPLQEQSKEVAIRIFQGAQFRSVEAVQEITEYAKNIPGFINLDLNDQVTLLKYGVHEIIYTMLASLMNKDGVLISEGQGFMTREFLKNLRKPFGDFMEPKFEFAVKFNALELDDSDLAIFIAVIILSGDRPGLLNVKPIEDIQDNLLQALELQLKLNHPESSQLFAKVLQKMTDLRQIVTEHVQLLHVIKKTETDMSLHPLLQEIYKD

Compound	effect of C313A mutation on binding (native MS) (mPPARγ LBD C313A mutant)	energy expenditure ([1]; age 8 weeks)	Food intake [1]	physical activity [1]	increase of 15-keto-PGE2 content in inguinal fat (PTGR2)	increase of 15-keto-PGE2 content in perigonadal fat (PTGR2; trend)
CCCCCC(=O)/C=C/[C@H]1[C@H](O)CC(=O)[C@@H]1C/C=C\CCCC(=O)O [15-keto-PGE2, 15-keto-prostaglandin E2]	almost completely abolished 15-keto-PGE2 binding	Higher energy expenditure	similar	similar		
Cc1[nH]c2nc(C(C)N3CCN(c4ccccc4)CC3)nn2c(=O)c1Cc1ccc(F)cc1 (stereo not drawn) [BPRPT0245]					~ 1.32 fold	~ 1.34 fold
